Here are results for 23 compounds from ChEMBL document CHEMBL1127573, “Anticancer specificity of some ellipticinium salts against human brain tumors in vitro” (1994).

What all share (format): functional
Assay [1] can be described thus: Selectivity rating for brain tumor cell line panel; i selective (**) if (A/B)> 6 and TGI-Corr > 0.8.
The species entered for assay [2] is Homo sapiens. The assay is described as follows: TGI correlation coefficient value of the compound.
Assay [3] is filed under the species Homo sapiens. The assay is described as follows: Concentration yielding an amount of cellular protein at the end of the incubation that is the same as at the beginning of the incubation in brain tumor sub panel.
Assay [4] is filed under the species Homo sapiens. The assay is described as follows: Concentration yielding an amount of cellular protein at the end of the incubation that is the same as at the beginning of the incubation in full panel.
A short description of assay [5]: Selectivity rating against brain tumor cell line panel; i moderatelyselective (*) if 3< (A/B)< 6 and TGI-Corr > 0.8.
The nature of assay [6]: Selective rating against brain tumor cell line panel; i selective (**) if (A/B)> 6 and TGI-Corr > 0.8.

Take `CC(=O)[O-].Cc1c2cc[n+](C)c(C)c2cc2c1[nH]c1ccccc12`: the Selectivity rating result in assay [1] was “Moderately selective”. The same compound had a TGI correlation coefficient in the assay listed under Homo sapiens [2] of 0.8. Moreover, the TGI concentration was 8.9 µM in the assay listed under Homo sapiens [3] and 32 µM in the assay listed under Homo sapiens [4].

In the assay filed under Homo sapiens [2], `CCN(CC)CC[n+]1ccc2c(C)c3[nH]c4ccccc4c3c(C)c2c1.[Br-]` registered a TGI correlation coefficient of 0.66. Further, the TGI concentration in the assay filed under Homo sapiens [3] came out at 2.7 µM; in the assay filed under Homo sapiens [4], 4.2 µM.

`Cc1c2ccncc2c(C)c2c1[nH]c1ccccc12` [ELLIPTECINE] had a TGI correlation coefficient in the assay listed under Homo sapiens [2] below 0.5. In addition, the results for the TGI concentration in the assay filed under Homo sapiens [3] and in the assay listed under Homo sapiens [4] were 2.9 µM and 3 µM, respectively.

The compound `CC(=O)[O-].Cc1c2cc[n+](C)cc2c(C)c2c1oc1ccccc12` showed a TGI correlation coefficient in the assay listed under Homo sapiens [2] of 0.89. Moreover, the TGI concentration in the assay listed under Homo sapiens [3] turned out to be 5.5 µM; in the assay listed under Homo sapiens [4], 20 µM. In addition, the Selectivity rating result in assay [5] was “Moderately selective”.

Consider `C=CCCCCn1c2ccccc2c2c(C)c3c[n+](C)ccc3c(C)c21.CC(=O)[O-]`, for which, in the assay listed under Homo sapiens [2], the TGI correlation coefficient came to 0.6. The TGI concentration in the assay filed under Homo sapiens [3] stood at 1.8 µM; in the assay listed under Homo sapiens [4], 2.9 µM.

`CC(=O)[O-].Cc1c2cc[n+](C)cc2c(C)c2c1[nH]c1ccc(Cl)cc12`: in the assay filed under Homo sapiens [2], the TGI correlation coefficient is recorded as 0.85. Further, the results for the TGI concentration in the assay filed under Homo sapiens [3] and in the assay filed under Homo sapiens [4] were 4.7 µM and 22 µM, respectively. Moreover, the Selectivity rating entry in assay [5] is on record as “Moderately selective”.

The compound `CS(=O)(=O)[O-].Cc1c2cc[n+](C)cc2c(C)c2c1[nH]c1ccccc12` registered a TGI correlation coefficient in the assay listed under Homo sapiens [2] of 0.86. Further, the TGI concentration was found to be 1 µM in the assay listed under Homo sapiens [3] and 11 µM in the assay filed under Homo sapiens [4].

Compound `Cc1c2ccncc2c(C)c2c1[nH]c1ccc(O)cc12` registered a TGI correlation coefficient in the assay filed under Homo sapiens [2] below 0.5. Further, the TGI concentration in the assay filed under Homo sapiens [3] stood at 3.4 µM; in the assay listed under Homo sapiens [4] it was 2.8 µM.

In the case of `Cc1c2cc[n+](C)cc2c(C)c2c1[nH]c1ccccc12`, the Selectivity rating entry in assay [6] is “Selective”.

For `Cc1c2ccncc2c(C)c2c1[nH]c1ccc(Cl)cc12`, in the assay filed under Homo sapiens [2], the TGI correlation coefficient is on record as below 0.5. The TGI concentration in the assay listed under Homo sapiens [3] worked out at 16 µM; in the assay listed under Homo sapiens [4], 17 µM.

In the case of `Cc1c2cc[n+]([O-])cc2c(C)c2c1[nH]c1ccccc12`, the TGI correlation coefficient in the assay filed under Homo sapiens [2] is given as below 0.5. Also, the TGI concentration in the assay listed under Homo sapiens [3] was 41 µM; in the assay filed under Homo sapiens [4] it was 62 µM.

In the assay filed under Homo sapiens [2], `Cc1c2cc[n+](C)cc2c(C)c2c1[nH]c1ccccc12.[I-]` yielded a TGI correlation coefficient of 0.96. Further, the TGI concentration in the assay listed under Homo sapiens [3] came to 1.4 µM; in the assay filed under Homo sapiens [4], 12 µM.

For the compound `CC(=O)[O-].COc1ccc2[nH]c3c(C)c4cc[n+](C)cc4c(C)c3c2c1`, in the assay filed under Homo sapiens [2], the TGI correlation coefficient stood at 0.94. For the same compound, the TGI concentration in the assay filed under Homo sapiens [3] came to 2.1 µM; in the assay filed under Homo sapiens [4], 18 µM.

Regarding `COc1ccc2[nH]c3c(C)c4cc[n+](C)cc4c(C)c3c2c1.[I-]`, in the assay listed under Homo sapiens [2], the TGI correlation coefficient was 1. For the same compound, the TGI concentration in the assay filed under Homo sapiens [3] is 1.1 µM; in the assay filed under Homo sapiens [4] it was 11 µM.

In the case of `COc1ccc2[nH]c3c(C)c4cc[n+](C)cc4c(C)c3c2c1`, in assay [6], the Selectivity rating result is given as “Selective”.

With `Cc1c2cc[n+](CCN3CCCCC3)cc2c(C)c2c1[nH]c1ccc(O)cc12`, in the assay filed under Homo sapiens [2], the TGI correlation coefficient worked out at 0.71. Moreover, the TGI concentration came to 20 µM in the assay listed under Homo sapiens [3] and 34 µM in the assay filed under Homo sapiens [4].

As for `COc1ccc2[nH]c3c(C)c4ccncc4c(C)c3c2c1`, in the assay listed under Homo sapiens [2], the TGI correlation coefficient is reported as below 0.5. In addition, the TGI concentration in the assay filed under Homo sapiens [3] came out at 3.6 µM; in the assay filed under Homo sapiens [4], 3.2 µM.

For `Cc1c2cc[n+](Cc3ccc(I)cc3)cc2c(C)c2c1[nH]c1ccccc12.[Cl-]`, the TGI correlation coefficient in the assay filed under Homo sapiens [2] is reported as below 0.5. The TGI concentration in the assay listed under Homo sapiens [3] came to 54 µM; in the assay filed under Homo sapiens [4], 44 µM.

In the assay filed under Homo sapiens [2], `CC(=O)[O-].Cc1c2cc[n+](C)cc2c(C)c2c1[nH]c1ccc(O)cc12` [ELLIPTINIUM ACETATE] returned a TGI correlation coefficient below 0.5. The figures for the TGI concentration in the assay filed under Homo sapiens [3] and in the assay filed under Homo sapiens [4] were 58 µM and 78 µM, respectively.

Compound `Cc1nccc2c(C)c3[nH]c4ccccc4c3cc12` gave a TGI correlation coefficient in the assay filed under Homo sapiens [2] below 0.5. For the same compound, the TGI concentration in the assay listed under Homo sapiens [3] amounted to 3.7 µM; in the assay listed under Homo sapiens [4], 3.6 µM.

In turn, `CC(=O)[O-].Cc1ccc2[nH]c3c(C)c4cc[n+](C)cc4c(C)c3c2c1` yielded a TGI correlation coefficient in the assay listed under Homo sapiens [2] of 0.83. The TGI concentration in the assay listed under Homo sapiens [3] was determined as 6.9 µM; in the assay listed under Homo sapiens [4], 21 µM. In addition, the Selectivity rating result in assay [5] is listed as “Moderately selective”.

`Cc1ccc2[nH]c3c(C)c4ccncc4c(C)c3c2c1` showed a TGI correlation coefficient in the assay listed under Homo sapiens [2] below 0.5. Moreover, the TGI concentration in the assay filed under Homo sapiens [3] is 3.1 µM; in the assay filed under Homo sapiens [4] it was 2.7 µM.

In the assay listed under Homo sapiens [2], `CCN(CC)CC[n+]1ccc2c(C)c3[nH]c4ccc(O)cc4c3c(C)c2c1.[Cl-]` [DATELLIPTIUM CHLORIDE] showed a TGI correlation coefficient of 0.78. Further, the TGI concentration in the assay listed under Homo sapiens [3] came to 16 µM; in the assay listed under Homo sapiens [4] it was 34 µM.
